Assay results from patent US20250302804A1, “RESOMELAGON AND ITS DERIVATIVES FOR THE TREATMENT OF CARDIOVASCULAR DISEASE, HYPERTENSION AND ATHEROSCLEROSIS” (SYNACT PHARMA ApS, priority 2022, published 2025).

Legend:
macrophages = settings: cited from earlier work
[1] = Phase IIa study in early RA patients: blood pressure and clinically notable vital sign abnormalities; type: in vivo, human; settings: for MAP Average/Median: MAP = DAP + ⅓(SAP − DAP); for CNA (clinically notable vital sign abnormalities): SAP ≥160, <90, DAP ≥105, <50
Text: (§1) The study population will consist of newly diagnosed subjects with severe active RA (CDAI (Clinical disease activity score)>22) who are to start up-titration with methotrexate (MTX).
Safety measures (AEs, SAEs, including laboratory abnormalities and vital signs such as blood pressure) will be registered during the whole study duration.

[2] = system: early rheumatoid arthritis (RA) patients with active joint disease; test: Phase IIa placebo-controlled study in early rheumatoid arthritis patients: CDAI; type: in vivo, human; settings: for CDAI group mean, Baseline / CDAI group mean, Screening / CDAI group mean, Week 4 / CDAI group mean, Week 2 / CDAI group mean, Week 5 / CDAI Difference / CDAI Difference in %: n = 31; for CDAI group mean, Baseline / CDAI group mean, Screening: before treatment; for CDAI group mean, Week 4: end of treatment; for CDAI group mean, Week 2: mid-treatment; for CDAI group mean, Week 5: one week follow-up after last dosage; for CDAI Difference / CDAI Difference in %: week 4 vs baseline
Protocol: as §1
The doses used in this Example are calculated based on the specific acetate salt form.
The study population will consist of newly diagnosed subjects with severe active RA (CDAI >22) who are to start up-titration with MTX. A minimum of 90 subjects are expected to complete the study; plus 45 subjects from Bulgaria and/or Moldova for a sub-study. Up to 120 subjects are planned to be enrolled to account for discontinuation rate, and up to 60 subjects for the sub-study.
The CDAI is a clinical composite score for following patients with RA.
Descriptive changes in CDAI where CDAI=SJC (28)+TJC (28)+PGA+IGA; • SJC (28): Swollen 28-Joint Count (shoulders, elbows, wrists, MCPs, PIPs including thumb IP, knees); • TJC (28): Tender 28-Joint Count (shoulders, elbows, wrists, MCPs, PIPs including thumb IP, knees); • PGA: Patient Global Disease Activity (patient's self-assessment of overall RA disease activity on a scale 0-100 where 100 is maximal activity); • IGA: Physician's Global Disease Activity (evaluator's assessment of the subject's overall RA disease activity on a scale 0-100 where 100 is maximal activity)
The CDAI will be scored at screening, baseline, after 2 weeks and 4 weeks treatment, and at the final visit (one week after final dose).

peritonitis = settings: oral; cited from earlier work
melanocytes = settings: cited from earlier work
[3] = system: acute peritonitis induced by zymosan A in mice; test: Zymosan A-induced acute peritonitis in mice: IL-1β, IL-6 and neutrophil accumulation; type: in vivo; settings: 1 mg/kg intraperitoneal 30 minutes before zymosan, 12 hours, N=6
Protocol: Acute peritonitis was induced by the injection of 1 mg zymosan A (Sigma-Aldrich) i.p. in 0.5 ml sterile PBS in mice. Twelve hours later the mice were sacrificed by CO2 exposure, and peritoneal cavities were washed with 4 ml ice-cold PBS containing 3 mM EDTA. Cells were stained with Turk's solution (0.01% crystal violet in 3% acetic acid) and counted using a Neubauer hemocytometer or were stained with FITC-conjugated mAb for Ly-6G/Gr1, F4/80, and corresponding isotype controls (eBioscience, Hatfield, U.K.), and subjected to flow-cytometry analysis using a BD FACSCalibur platform (BD Biosciences, Oxford, U.K.). Levels of IL-1B and IL-6 in quick frozen samples were quantified according to the manufacturer's instructions using ELISA Ready-SET-Go! (eBioscience). All animal studies were approved by and performed under the guidelines of the Ethical Committee for the Use of Animals, Barts and The London School of Medicine and Home Office regulations (Guidance on the Operation of Animals, Scientific Procedures Act, 1986). Male (7-8 wk old) C57BL/6J wild-type (WT) mice were purchased from Charles River Laboratories. Test Item A, 1 mg/kg or vehicle treatment were given intraperitoneal 30 minutes before induction of the acute peritonitis. N=6 for in both groups.

MC1R = settings: cited from earlier work
[4] = system: experimental inflammatory arthritis; settings: oral; cited from earlier work
MC3R = settings: cited from earlier work
[5] = Phase I repeated dose study, peak and trough concentrations at steady conditions; type: in vivo, human; settings: 200 mg once daily
[6] = 50 mg AP1189 once daily plus MTX
[7] = 100 mg AP1189 once daily plus MTX

C Trough (Mean +/− SD, N = 9) [5]: 186 ± 45 ng/mL
SMILES: NC(N)=N/N=C/C=C/c1cccn1-c1ccccc1[N+](=O)[O-] [AP1189, (E)-N-trans-{3-[1-(2-nitrophenyl)-1H-pyrrol-2-yl]-allylidene}-aminoguanidium acetate]
cytokine release (macrophages): reduce cytokine release
DAP Average/Median ([1]; 50 mg AP1189, 4 Weeks, n 33): 79.9 mmHg
SAP Average/Median ([1]; 50 mg AP1189, 4 Weeks, n 33): 129.1 mmHg
MAP Average/Median ([1]; 50 mg AP1189, 4 Weeks, n 33): 96.3 mmHg
CNA (clinically notable vital sign abnormalities) ([1]; 50 mg AP1189, 4 Weeks, n 33): 2 (6%)
DAP Average/Median ([1]; 50 mg AP1189, Base Line, n 33): 80.0 mmHg
SAP Average/Median ([1]; 50 mg AP1189, Base Line, n 33): 131.3 mmHg
MAP Average/Median ([1]; 50 mg AP1189, Base Line, n 33): 97.1 mmHg
CNA (clinically notable vital sign abnormalities) ([1]; 50 mg AP1189, Base Line, n 33): 4 (11%)
decrease in DAP after 4 weeks treatment ([1]; 50 mg AP1189 group): 0.1 mmHg
decrease in MAP after 4 weeks treatment ([1]; 50 mg AP1189 group): 0.8 mmHg
decrease in SAP after 4 weeks treatment ([1]; 50 mg AP1189 group): 2.2 mmHg
DAP Average/Median ([1]; 100 mg AP1189, 4 Weeks, n 34): 80.3 mmHg
SAP Average/Median ([1]; 100 mg AP1189, 4 Weeks, n 34): 126.8 mmHg
MAP Average/Median ([1]; 100 mg AP1189, 4 Weeks, n 34): 95.8 mmHg
CNA (clinically notable vital sign abnormalities) ([1]; 100 mg AP1189, 4 Weeks, n 34): 1 (3%)
DAP Average/Median ([1]; 100 mg AP1189, Base Line, n 34): 81.1 mmHg
SAP Average/Median ([1]; 100 mg AP1189, Base Line, n 34): 129.9 mmHg
MAP Average/Median ([1]; 100 mg AP1189, Base Line, n 34): 97.4 mmHg
CNA (clinically notable vital sign abnormalities) ([1]; 100 mg AP1189, Base Line, n 34): 4 (11%)
decrease in DAP after 4 weeks treatment ([1]; 100 mg AP1189 group): 0.8 mmHg
decrease in MAP after 4 weeks treatment ([1]; 100 mg AP1189 group): 1.6 mmHg
decrease in SAP after 4 weeks treatment ([1]; 100 mg AP1189 group): 3.1 mmHg
number of observed abnormalities in blood pressure ([1]; both treatment groups (50 mg and 100 mg), 4 weeks, no change in placebo group): reduced
CDAI group mean, Baseline [2, 6]: 36.1
CDAI group mean, Screening [2, 6]: 35.6
CDAI group mean, Week 4 [2, 6]: 24.2
CDAI group mean, Week 2 [2, 6]: 29.9
CDAI group mean, Week 5 [2, 6]: 22.9
CDAI Difference [2, 6]: −11.9
CDAI Difference in % [2, 6]: 33%
CDAI group mean, Baseline [2, 7]: 39
CDAI group mean, Screening [2, 7]: 38.9
CDAI group mean, Week 4 [2, 7]: 23.9
CDAI group mean, Week 2 [2, 7]: 28.9
CDAI group mean, Week 5 [2, 7]: 21.3
CDAI Difference [2, 7]: −15.1
CDAI Difference in % [2, 7]: 39%
effect in reducing CDAI ([2]; both tested dosages, 50 mg and 100 mg): significant effect
anti-inflammatory action in peritonitis (peritonitis): elicits anti-inflammatory actions
melanogenesis (melanocytes): no melanogenesis was induced
reduction of neutrophil accumulation compared to pretreatment with vehicle [3]: 70%
reduction of IL-1β levels compared to pretreatment with vehicle ([3]; p<0.05 vs vehicle): 37%
reduction of IL-6 levels compared to pretreatment with vehicle ([3]; p<0.05 vs vehicle): 59%
ERK1/2 phosphorylation (MC1R; MC1R): cause ERK1/2 phosphorylation
canonical cAMP generation (MC1R; MC1R): does not induce canonical CAMP generation
agonist character at MC1R (MC1R): biased agonist
macroscopic and histological parameters of joint disruption [4]: significant reduction
ERK1/2 phosphorylation (MC3R; MC3R): cause ERK1/2 phosphorylation
canonical cAMP generation (MC3R; MC3R): does not induce canonical CAMP generation
agonist character at MC3R (MC3R): biased agonist
